Test results published in patent US7763580B2, “Methods for treating conditions associated with the accumulation of excess extracellular matrix” (University of Utah Research Foundation, priority 1999, dated 2010).

Legend:
[1] = test system: anti-Thy 1 glomerulonephritis; assay: Immunofluorescent staining of glomerular fibronectin EDA+ and collagen I; format: in vivo, Sprague Dawley rats; details: enalapril alone
Procedure: These experiments were performed on male Sprague Dawley rats (200-250 g) obtained from the Sasco colony of Charles River Laboratories (Wilmington, Mass., USA). Animal housing and care were in accordance with the NIH Guide for the Care and Use of Laboratory Animals, NIH Publication No. 85-23, 1985. Animals were fed a normal protein diet (22% protein, Teklad No. 86 550, Teklad Premier Laboratory Diets, Madison, Wis., USA). Glomerulonephritis was induced by tail vein injection of 2.25 mg/Kg of the monoclonal anti-Thy 1.1 antibody OX-7 (NCCC, Biovest International Inc, Minneapolis, Minn., USA). OX-7 binds to a Thy 1-like epitope on the surface of mesangial cells causing complement-dependent cell lysis followed by fibrotic tissue repair (Bagchus et al., Lab Invest. 55:680-687 (1986)). Control animals were injected with similar volumes of phosphate-buffered saline (PBS). […] The intensity of glomerular staining of collagen I and fibronectin was evaluated according to a 0 to 4 scale, which has been described in detail previously (Yamamoto et al., Kidney Int. 49:461-469 (1996)). The number of cells per glomerulus, staining positive for the monocyte/macrophage marker ED1, were counted. Thirty glomeruli per sample were evaluated. The mean values with standard error values were calculated. […] The percent reduction in disease severity in a treated group was calculated as: […]

[2] = test system: anti-Thy 1 glomerulonephritis; assay: Proteinuria in anti-Thy 1 glomerulonephritis; format: in vivo, Sprague Dawley rats; details: enalapril monotherapy
Procedure: These experiments were performed on male Sprague Dawley rats (200-250 g) obtained from the Sasco colony of Charles River Laboratories (Wilmington, Mass., USA). Animal housing and care were in accordance with the NIH Guide for the Care and Use of Laboratory Animals, NIH Publication No. 85-23, 1985. Animals were fed a normal protein diet (22% protein, Teklad No. 86 550, Teklad Premier Laboratory Diets, Madison, Wis., USA). Glomerulonephritis was induced by tail vein injection of 2.25 mg/Kg of the monoclonal anti-Thy 1.1 antibody OX-7 (NCCC, Biovest International Inc, Minneapolis, Minn., USA). OX-7 binds to a Thy 1-like epitope on the surface of mesangial cells causing complement-dependent cell lysis followed by fibrotic tissue repair (Bagchus et al., Lab Invest. 55:680-687 (1986)). Control animals were injected with similar volumes of phosphate-buffered saline (PBS).
Groups of 8 rats were assigned and treated as outlined in Table 2. Doses of enalapril above […] in drinking water are maximally effective in this model (Peters et al., Kidney Int. 54:1570-1580 (1998)). A dose of […] enalapril was used here. […]
The disease-induced increase in a variable was defined as the mean value for the disease control group minus the mean value of the normal control group. The percent reduction in disease severity in a treated group was calculated as: […]

## CCOC(=O)[C@H](CCc1ccccc1)N[C@@H](C)C(=O)N1CCC[C@H]1C(=O)O [enalapril]
[1]
  reduction of collagen I immunostaining: 33%
  reduction of fibronectin immunostaining: 36%
[2]
  reduction of disease-induced increases in urinary protein: 78%
